In patent US20130303518A1, “Methods of Inhibiting the Catalytic Activity of a Protein Kinase and of Treating a Protein Kinase Related Disorder” (JIANGSU HANSOH PHARMACEUTICAL CO., LTD., priority 2007, published 2013):

How the values were obtained:
PDGFRβ = target: T1, PDGFRβ (Homo sapiens, UniProt P09619); experiment: Inhibition of receptor tyrosine kinases activity assay; type: biochemical
T1 construct: purchased invitrogen PV3082

Ret = target: T2, Ret (Homo sapiens, UniProt P07949); experiment: as above; type: biochemical
T2 construct: purchased invitrogen PV3819
T2 sequence (P07949 29-1114): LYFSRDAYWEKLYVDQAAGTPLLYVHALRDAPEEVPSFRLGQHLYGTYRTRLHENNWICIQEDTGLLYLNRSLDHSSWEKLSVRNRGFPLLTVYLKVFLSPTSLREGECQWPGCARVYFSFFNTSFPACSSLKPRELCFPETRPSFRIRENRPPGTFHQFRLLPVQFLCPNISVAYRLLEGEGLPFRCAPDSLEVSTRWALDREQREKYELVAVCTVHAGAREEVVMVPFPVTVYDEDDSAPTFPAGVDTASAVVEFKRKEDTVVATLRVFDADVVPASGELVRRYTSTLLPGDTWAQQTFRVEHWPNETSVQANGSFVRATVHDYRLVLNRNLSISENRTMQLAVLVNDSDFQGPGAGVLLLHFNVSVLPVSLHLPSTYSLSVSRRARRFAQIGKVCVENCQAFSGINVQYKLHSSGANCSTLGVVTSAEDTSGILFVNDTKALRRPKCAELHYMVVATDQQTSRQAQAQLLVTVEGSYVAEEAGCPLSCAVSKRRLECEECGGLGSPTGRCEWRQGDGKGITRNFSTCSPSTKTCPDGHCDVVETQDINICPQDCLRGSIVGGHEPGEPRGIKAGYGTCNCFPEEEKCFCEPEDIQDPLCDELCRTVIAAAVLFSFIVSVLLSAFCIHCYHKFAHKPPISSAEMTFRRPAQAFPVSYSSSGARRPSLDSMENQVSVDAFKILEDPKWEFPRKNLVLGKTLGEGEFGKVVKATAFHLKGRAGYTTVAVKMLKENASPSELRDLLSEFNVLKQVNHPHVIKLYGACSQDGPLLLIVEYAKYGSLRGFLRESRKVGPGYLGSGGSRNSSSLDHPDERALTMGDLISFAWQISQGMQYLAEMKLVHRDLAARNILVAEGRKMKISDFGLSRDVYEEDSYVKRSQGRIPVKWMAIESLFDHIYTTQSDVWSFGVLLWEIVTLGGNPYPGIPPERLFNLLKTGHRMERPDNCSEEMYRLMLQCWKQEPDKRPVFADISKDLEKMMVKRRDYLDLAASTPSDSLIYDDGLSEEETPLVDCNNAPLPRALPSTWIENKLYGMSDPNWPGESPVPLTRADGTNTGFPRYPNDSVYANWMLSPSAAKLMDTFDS

[1] = test system: HT-29 (human colon cancer cells); experiment: Inhibition of cancer cell proliferation assay (SRB); type: cell-based; details: mean ± SD, 72 hours
Description: (§1) The cellular assay described here is to test the proliferation inhibition activity of the compound of Example 53 on the cancer cells in vitro using Sulforhodamine B (SRB) method. The cancer cells include HUVEC (human umbilical vein endothelial cells), HT-29 (human colon cancer cells), Mo7e (human megakaryoblastic leukemia cell line), A431 (human epidermoid carcinoma cells), NCI—H526 (small-cell lung cancer cells), and SK—BR-3 (human breast cancer cells).
HT-29 cancer cell: Cell Bank, Chinese Academy of Sciences, TCHu103;
(§2) The following in vitro assay is to determine the activity of the tested compound for inhibiting the proliferation of the cancer cells mentioned above. The activity is represented by the IC50 value. The general procedures of the assay are given as follows: Cancer cells mentioned above were chosen and seeded to 96-well cell culture plate at a suitable concentration (e.g., 5000 cells/mL medium). These cells then were incubated in carbon dioxide (CO2) incubator until they reached 85% confluency. […] 72 hours later, the activity of the tested compound for inhibiting the cell proliferation was determined by using Sulforhodamine B (SRB) method. IC50 value on tested cells is calculated by the data of inhibition rates of serial concentrations of the tested compound.

[2] = test system: Mo7e (human megakaryoblastic leukemia cell line); experiment: as above; type: cell-based; details: mean ± SD, 72 hours
Description: as §1
Mo7e cancer cell: originally described by Avanzi et al. ((1988) Br. J. Haematol. 69:359-366), was obtained from Genetics Institute (Boston, Mass.) and was maintained in Iscove's modified Dulbecco's medium (Life Technologies, Inc.);
as §2, with “medium).” for “medium). These cells then were incubated in carbon dioxide (CO2) incubator until they reached 85% confluency.”

[3] = test system: A431 (human epidermoid carcinoma cells); experiment: as above; type: cell-based; details: A-431, 72 h, read-out: IC50 A431
Description: (§3) The cancer cells include HUVEC (human umbilical vein endothelial cells), HT-29 (human colon cancer cells), Mo7e (human megakaryoblastic leukemia cell line), A431 (human epidermoid carcinoma cells), NCI—H526 (small-cell lung cancer cells), and SK—BR-3 (human breast cancer cells).
(§4) The following in vitro assay is to determine the activity of the tested compound for inhibiting the proliferation of the cancer cells mentioned above. The activity is represented by the IC50 value. The general procedures of the assay are given as follows: Cancer cells mentioned above were chosen and seeded to 96-well cell culture plate at a suitable concentration (e.g., 5000 cells/mL medium). […] Then, the cell culture medium was replaced by fresh one with tested compound added in it at serial concentrations (general 6 to 7 concentrations). Then the cells were put back to the incubator and cultured continuously. 72 hours later, the activity of the tested compound for inhibiting the cell proliferation was determined by using Sulforhodamine B (SRB) method. IC50 value on tested cells is calculated by the data of inhibition rates of serial concentrations of the tested compound.

[4] = test system: NCI—H526 (small-cell lung cancer cells); experiment: as above; type: cell-based; details: Homo sapiens, NCI-H526, 72 h, read-out: IC50 NCI-H526
Description: as §3, §4

[5] = test system: SK—BR-3 (human breast cancer cells); experiment: as above; type: cell-based; details: SK-BR-3, 72 h, read-out: IC50 SK-BR-3
Description: as §3, §4

HT-29(colon cancer) = experiment: Anticancer pharmacodynamic assay in vivo, xenograft; parameters: species or system nude mice; details: for T/C (%): relative tumor volume (%): HT-29 xenograft, d0-20
Description: (§5) The test method and steps are the same with those disclosed in “PHARMACODYNAMIC ASSAYS IN VIVO” of the present invention. The therapeutic effects of the compound of Example 53 against xenografts of colon cancer, non-small cell lung cancer, liver cancer, melanoma, renal cancer in nude mice are estimated.
HT-29(colon cancer): Cell Bank, Chinese Academy of Sciences, TCHu103;
(§6) Nude mice were hypodermic inoculated HT-29 human colon cancer cell. After tumors grew to 100-300 mm^3, mice were randomly divided into teams (d0). The volume of tumors and weigh of the mice were measured for 2-3 times per week. The calculation formula of the volume of tumor (V) is: V=½×a×b^2, a: length of tumor, b: width of tumor.

Bel-7402(liver cancer) = experiment: as above; parameters: species or system nude mice; details: for T/C (%): relative tumor volume (%): Bel-7402 xenograft
Description: as §5
Bel-7402(liver cancer): Cell Bank, Chinese Academy of Sciences, TCHu10;
as §6

A375 (melanoma) = experiment: as above; parameters: species or system nude mice; details: for T/C (%): relative tumor volume (%): A375 xenograft
Description: as §5
A375 (melanoma): Cell Bank, Chinese Academy of Sciences, TCHu4;
as §6

[6] = mean ± SD, 20 μM ATP, 25° C., 45 minutes

T1 sequence (P09619 33-1106): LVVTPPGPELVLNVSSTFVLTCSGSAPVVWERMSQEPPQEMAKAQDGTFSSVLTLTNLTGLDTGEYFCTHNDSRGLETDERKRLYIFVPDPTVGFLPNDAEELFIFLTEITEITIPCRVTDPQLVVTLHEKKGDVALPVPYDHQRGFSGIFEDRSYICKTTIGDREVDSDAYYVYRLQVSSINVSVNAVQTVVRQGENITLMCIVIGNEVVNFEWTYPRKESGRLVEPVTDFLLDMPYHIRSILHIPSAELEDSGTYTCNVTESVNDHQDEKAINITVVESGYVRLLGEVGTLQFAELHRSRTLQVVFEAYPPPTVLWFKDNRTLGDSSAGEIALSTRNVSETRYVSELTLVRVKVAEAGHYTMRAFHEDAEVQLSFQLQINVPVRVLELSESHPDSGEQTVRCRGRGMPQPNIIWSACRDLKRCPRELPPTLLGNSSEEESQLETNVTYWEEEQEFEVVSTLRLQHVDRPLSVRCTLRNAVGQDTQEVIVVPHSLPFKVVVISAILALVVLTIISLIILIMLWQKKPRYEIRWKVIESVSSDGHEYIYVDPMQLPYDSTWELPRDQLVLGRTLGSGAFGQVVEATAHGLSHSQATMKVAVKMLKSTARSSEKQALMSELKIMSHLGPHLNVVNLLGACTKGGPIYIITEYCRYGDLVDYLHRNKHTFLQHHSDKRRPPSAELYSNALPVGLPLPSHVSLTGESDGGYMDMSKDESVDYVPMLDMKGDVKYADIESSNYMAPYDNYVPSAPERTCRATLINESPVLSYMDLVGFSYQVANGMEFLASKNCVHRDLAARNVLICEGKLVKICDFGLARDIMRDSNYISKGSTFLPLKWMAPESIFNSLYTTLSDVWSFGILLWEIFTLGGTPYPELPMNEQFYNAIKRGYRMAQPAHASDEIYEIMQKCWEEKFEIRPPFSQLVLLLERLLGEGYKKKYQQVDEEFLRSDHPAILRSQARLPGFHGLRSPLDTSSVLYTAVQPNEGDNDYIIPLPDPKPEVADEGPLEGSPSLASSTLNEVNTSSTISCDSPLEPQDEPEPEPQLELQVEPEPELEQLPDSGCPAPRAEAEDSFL

Compound: Cc1c(/C=C2\C(=O)Nc3ccc(F)cc32)[nH]c2c1C(=O)N(C[C@H](O)CN1CCOCC1)CCC2 [Example 53, (R,Z)-2-(5-Fluoro-2-oxo-1,2-dihydro-indol-3-ylidenemethyl)-5-(2-hydroxy-3-morpholin-4-yl-propyl)-3-methyl-5,6,7,8-tetrahydro-1H-pyrrolo[3,2-c]azepin-4-one]
- inhibition of kinase activity (in words) (PDGFRβ; PDGFRβ): obvious activity
- IC50 (PDGFRβ; [6]): 41.5 ± 22.7 nM
- inhibition of kinase activity (in words) (Ret; Ret): obvious activity
- IC50 (Ret; [6]): 182 ± 6.4 nM
- IC50 [1]: 2400 ± 1600 nM
- IC50 [2]: 800 nM
- IC50 [3]: 2000 ± 500 nM
- IC50 [4]: 8300 ± 300 nM
- IC50 [5]: 7800 ± 1500 nM
- anticancer activity against xenograft (in words) (HT-29(colon cancer); HT-29 xenograft in nude mice): obvious anticancer activity
- T/C (%): relative tumor volume (%) (HT-29(colon cancer); 15 mg/kg p.o): 49.4%
- T/C (%): relative tumor volume (%) (HT-29(colon cancer); 30 mg/kg p.o): 48.5%
- T/C (%): relative tumor volume (%) (HT-29(colon cancer); 60 mg/kg p.o): 31.6%
- anticancer activity against xenograft (in words) (Bel-7402(liver cancer); Bel-7402 xenograft in nude mice): obvious anticancer activity
- T/C (%): relative tumor volume (%) (Bel-7402(liver cancer); 15 mg/kg p.o d0-17): 39.8%
- T/C (%): relative tumor volume (%) (Bel-7402(liver cancer); 30 mg/kg p.o d0-17): 29.2%
- T/C (%): relative tumor volume (%) (Bel-7402(liver cancer); 60 mg/kg p.o d0-17): 13.3%
- anticancer activity against xenograft (in words) (A375 (melanoma); A375 xenograft in nude mice): obvious anticancer activity
- T/C (%): relative tumor volume (%) (A375 (melanoma); 15 mg/kg p.o d0-16): 82.5%
- T/C (%): relative tumor volume (%) (A375 (melanoma); 30 mg/kg p.o d0-16): 58.5%
- T/C (%): relative tumor volume (%) (A375 (melanoma); 60 mg/kg p.o d0-16): 46.4%
